Test results: PubChem BioAssay AID696 (Sanford-Burnham Center for Chemical Genomics, 2007)

Biological target: Alkaline phosphatase, placental type (Homo sapiens) (UniProt P05187)
Test: PLAP enzyme activators, biochemical, luminescence, HTS (AID 696)
Details: purified PLAP enzyme, luminescent substrate read-out

Alkaline phosphatase, placental type (Homo sapiens), sequence (P05187 whole entry, looked up): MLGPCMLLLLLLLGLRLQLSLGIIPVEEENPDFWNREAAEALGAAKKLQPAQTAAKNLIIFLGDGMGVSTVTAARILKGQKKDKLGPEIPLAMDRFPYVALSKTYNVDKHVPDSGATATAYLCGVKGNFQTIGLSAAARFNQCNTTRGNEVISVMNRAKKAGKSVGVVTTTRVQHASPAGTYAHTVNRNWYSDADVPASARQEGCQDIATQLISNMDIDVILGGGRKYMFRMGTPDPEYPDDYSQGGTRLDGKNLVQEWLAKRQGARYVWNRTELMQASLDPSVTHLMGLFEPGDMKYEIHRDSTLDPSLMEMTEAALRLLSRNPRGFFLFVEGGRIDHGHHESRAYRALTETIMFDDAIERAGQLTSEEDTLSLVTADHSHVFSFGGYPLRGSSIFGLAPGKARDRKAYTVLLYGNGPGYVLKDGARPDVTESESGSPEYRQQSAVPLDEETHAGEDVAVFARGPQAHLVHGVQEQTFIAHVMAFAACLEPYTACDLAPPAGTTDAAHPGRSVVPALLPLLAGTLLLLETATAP

Row | SMILES | EC50 [µM]
1 | N#CC(c1ccc(F)cc1)c1ccc(C(=O)c2ccccc2)cc1 (centres undefined) | 7.89
2 | c1ccc(Nc2cccc(Nc3ccccc3)n2)cc1 | 37
3 | O=C(C[n+]1cc2ccccc2c2ccccc21)c1ccccc1 | 94.1
4 | O=[N+]([O-])c1ccc(Sc2nnnn2-c2ccccc2)c(Cl)c1 | 26.3
5 | CCCCN1CCc2c1nc1ccc(Br)cc1c2N | 77.2
6 | CCCCOC(=O)C(C)Nc1n[nH]c(=S)[nH]c1=O (centres undefined) | 21.4
7 | Cc1cc(Nc2ccc(Cl)cc2)n(-c2cccc(Cl)c2)n1 | 51
8 | CCCn1c(CNc2ccc(Br)cc2)nc2ccccc21 | 48.5
9 | Cc1ccc(/C=N/NC(=O)c2c[nH]c3ccccc23)o1 | 59.2
10 | N#CC(c1ccc(F)cc1)c1ccc(C(=O)c2ccc(F)cc2)cc1 (centres undefined) | 23.1
11 | O=P(CCCCCCCCCP(=O)(c1ccccc1)c1ccccc1)(c1ccccc1)c1ccccc1 | 99.6
12 | COc1cccc(NC(=O)c2nnn(CCc3ccccc3)c2N)c1 | 82.8
13 | O=C1Nc2ccc(Br)cc2/C1=N/N=C/C1=C(N2CCOCC2)C(=C\c2ccccc2)/CC1 | 38.4
14 | O=C(NC1(C(F)(F)F)Oc2ccc(Cl)cc2O1)N1CCC2(CC1)OCCO2 (centres undefined) | 61.9
15 | O=C(Nc1ccccc1)NC1(C(=O)N2CCN(C(=O)c3ccco3)CC2)CCCCC1 | 35.6
16 | CCOC(=O)c1c(C)[nH]c(C(=O)CSc2nnc(CC(C)c3ccccc3)o2)c1C (centres undefined) | 78.5
17 | CC1Cc2ccccc2N1C(=O)CSc1nnc(Cc2ccccc2)n1CCc1ccccc1 (centres undefined) | 86.8
18 | COc1ccc(-c2cc(NCc3ccccn3)n3ncnc3n2)cc1 | 65.9
19 | CC(C)N=c1scc(-c2ccco2)n1/N=C/c1ccc(O)c(O)c1 | 48.2
20 | COc1cccc(NCc2cc3c(C(C)(C)C)nn(-c4ccccc4)c3[nH]c2=O)c1 | 78

Row | SMILES | EC50 [µM]
21 | COc1ccc(-c2nnc(-c3ccc(Br)o3)o2)cc1OC | 25.9
22 | c1ccc(CSCCc2ccncc2)cc1 | 66.9
23 | CCOc1ccc(CNC(=S)N/N=C\c2ccc([N+](=O)[O-])cc2)cc1 | 10.9
24 | CCn1c(SCC(=O)c2ccc(O)c(O)c2)nnc1-c1ccccc1 | 79.4
25 | Cc1nn(C)cc1/C=N\NC(=O)c1ccc2c(c1)c(C)c(C)n2Cc1ccccc1 | 72.1
26 | Clc1ccc(-c2cc(CSc3cccc(Cl)c3)on2)cc1 | 69.4
27 | O=P(/C(=N/O)N1CCCCC1)(N1CCOCC1)N1CCOCC1 | 54.5
28 | Cc1ccc(-n2c([O-])nc(-[n+]3ccccc3)c2C=O)cc1 | 9.08
29 | COC(=O)c1cn[nH]c1NC(=S)Nc1ccccc1C | 21.1
30 | O=C(Oc1ccc2c(=O)c(Oc3ccc4ccccc4c3)coc2c1)c1cncc(Br)c1 | 74
31 | Cc1ccc(C)c(NC(=S)NC(NC(=O)Cc2cccc3ccccc23)C(Cl)(Cl)Cl)c1 (centres undefined) | 63.1
32 | CCC(=O)Nc1ccccc1C(=O)OCC(=O)c1ccccc1 | 39.2
33 | CCCn1c(C(O)c2ccc3c(c2)OCO3)nc2ccccc21 (centres undefined) | 17.7
34 | O=C(Cn1c(=O)n(-c2ccccc2)c(=O)c2sccc21)N1CCCC1 | 2.65
35 | Cc1cccc(N2C(=O)NC(=O)/C(=C\c3cnn(-c4ccccc4)c3)C2=O)c1 | 1.09
36 | CC1CC(C)CN(CC(C)(C)NS(=O)(=O)c2ccc(Cl)cc2)C1 (centres undefined) | 24.8
37 | CC(C)n1c(-c2ccc(N(C)C)cc2)nc2ccccc21 | 8.52
38 | Cc1ccc(C2CC(c3ccc(Cl)cc3)=NNC2=O)cc1 (centres undefined) | 0.203
39 | O=C(Cn1c(=O)oc2cc(S(=O)(=O)N3CCCC3)ccc21)NCc1ccc(F)cc1 | 0.457
